Values of other authors, collected in the CATMoS acute toxicity set (Mansouri et al. 2021).

Assay: rat acute oral toxicity
Conditions: in vivo

Which LD50 does the source give for CC1CO1 (stereo not given) here?
Its LD50 is 380 mg/kg.

With COP(=S)(OC)OC1CCCCC1 as the compound, how does the LD50 read?
The LD50 was 2900 mg/kg.

For C1COCCO1, which LD50 is on record?
The LD50 was 4200 mg/kg.

Which LD50 does the source give for CCOCCC(=O)O here?
The LD50 was 4800 mg/kg.

With C=CC(=O)OCCOC(=O)c1ccc(C(=O)O)cc1C(=O)O as the compound, how does the LD50 read?
Its LD50 is 3190 mg/kg.

With C=CCN1CCc2nc(N)sc2CC1 as the compound, how does the LD50 read?
Its LD50 is 403 mg/kg.

Which LD50 does the source give for CN(C)C#N here?
Its LD50 is 146 mg/kg.

With CC(=O)O[C@@H]1C[C@]2(O)[C@H](CC[C@]3(C)[C@@H](c4ccc(=O)oc4)CC[C@@]32O)[C@@]2(C)CC[C@H](O[C@@H]3O[C@H](CO)[C@@H](O)[C@H](O)[C@H]3O)C=C12 as the compound, how does the LD50 read?
Its LD50 is 0.43 mg/kg.

Which LD50 does the source give for CCCCCCCCCCCCN here?
Its LD50 is 1020 mg/kg.

For CC(=O)N[C@@H](Cc1c[nH]c2ccccc12)C(=O)O, which LD50 is on record?
The LD50 was 15000 mg/kg.

Which LD50 does the source give for O=c1[nH]c2cc(Cl)c(Cl)cc2o1 here?
The LD50 was 700 mg/kg.

Which LD50 does the source give for CC=C(C(=O)NC(N)=O)C(C)C here?
Its LD50 is 9000 mg/kg.

With N=C(N)NCC1CCC(C(=O)Oc2ccccc2C(=O)OCc2ccccc2)CC1 (stereo not given) as the compound, how does the LD50 read?
Its LD50 is 8010 mg/kg.

For CO[C@H]1[C@@H](O)C[C@H](O[C@H]2[C@@H](O)C[C@H](O[C@H]3[C@@H](O)C[C@H](O[C@H]4CC[C@@]5(C)[C@H](CC[C@@H]6[C@@H]5C[C@@H](O)[C@]5(C)[C@@H](C7=CC(=O)OC7)CC[C@]65O)C4)O[C@@H]3C)O[C@@H]2C)O[C@@H]1C, which LD50 is on record?
The LD50 was 8.3 mg/kg.

Which LD50 does the source give for CCc1cccc2c3c([nH]c12)C(CC)(CC(=O)O)OCC3 (stereo not given) here?
Its LD50 is 94 mg/kg.

For CCC(CC)COCCOC(=O)CCCCC(=O)OCCOCC(CC)CC, which LD50 is on record?
Its LD50 is 3250 mg/kg.

Which LD50 does the source give for O=NN(c1ccccc1)c1ccccc1 here?
Its LD50 is 1820 mg/kg.

For O=C1NC2CCCCN2C12CCN(CCCN1c3ccccc3CCc3ccc(Cl)cc31)CC2 (stereo not given), which LD50 is on record?
Its LD50 is 4910 mg/kg.

With CC(C(=O)O)c1ccc2c(c1)C(=O)Cc1ccccc1O2 (stereo not given) as the compound, how does the LD50 read?
Its LD50 is 106 mg/kg.

With CCN(Cc1ccncc1)N=O as the compound, how does the LD50 read?
The LD50 was 40 mg/kg.

Which LD50 does the source give for BrC12CC3CC(CC(C3)C1)C2 here?
Its LD50 is 8470 mg/kg.

For CCOP(=O)(OCC)SCn1nc(Cl)c(C)cc1=O, which LD50 is on record?
Its LD50 is 27 mg/kg.

For CCC(C)OC(C[n+]1ccccc1)c1cccc(Cl)c1 (stereo not given), which LD50 is on record?
Its LD50 is 250 mg/kg.

Which LD50 does the source give for COc1ccc2c(c1)c(CC(=O)OCC(C(=O)O)c1ccccc1)c(C)n2C(=O)c1ccc(Cl)cc1 (stereo not given) here?
Its LD50 is 140 mg/kg.

For CCN(CC)CCNC(=O)COc1cc(OC)c(OC)c(OC)c1, which LD50 is on record?
Its LD50 is 1760 mg/kg.

With NC(=S)Nc1ccc(-c2ccc(NC(N)=S)cc2)cc1 as the compound, how does the LD50 read?
Its LD50 is 200 mg/kg.

With CC(C)c1cc([N+](=O)[O-])cc([N+](=O)[O-])c1O as the compound, how does the LD50 read?
The LD50 was 63 mg/kg.

Which LD50 does the source give for CC1(C)C2CCC1(C)C(Oc1ccc(N)cc1)C2 (stereo not given) here?
The LD50 was 660 mg/kg.

With CN(C)C(=S)c1ccc2c(c1)OCO2 as the compound, how does the LD50 read?
Its LD50 is 79 mg/kg.

Which LD50 does the source give for CCCC(=O)OC/C=C(\C)CCC=C(C)C here?
Its LD50 is 10700 mg/kg.

With COCc1ccc(-c2ccc(COC)cc2)cc1 as the compound, how does the LD50 read?
The LD50 was 1370 mg/kg.

Which LD50 does the source give for Cc1c(Nc2ncnc3ccccc23)c(=O)n(C)n1-c1ccccc1 here?
Its LD50 is 369 mg/kg.

Which LD50 does the source give for Cc1cc[nH]n1 here?
Its LD50 is 710 mg/kg.

Which LD50 does the source give for Cl/C=C/C[N+]12CN3CN(CN(C3)C1)C2 here?
The LD50 was 500 mg/kg.

Which LD50 does the source give for Cn1c(=O)c2c(ncn2CCCCN2CCN(c3ccc(Cl)cc3)CC2)n(C)c1=O here?
Its LD50 is 505 mg/kg.

For FC(F)(F)c1ccccc1Br, which LD50 is on record?
Its LD50 is 2720 mg/kg.

For O=C(C(F)(F)Cl)C(F)(Cl)Cl, which LD50 is on record?
Its LD50 is 277 mg/kg.

For CCCCC(C)(C)CO, which LD50 is on record?
Its LD50 is 2200 mg/kg.

For Nc1ccc(F)c([N+](=O)[O-])c1, which LD50 is on record?
The LD50 was 1100 mg/kg.

For CCCCN(C)N=O, which LD50 is on record?
The LD50 was 130 mg/kg.

Which LD50 does the source give for CC(C)(c1ccccc1)c1ccc(O)cc1 here?
Its LD50 is 1770 mg/kg.

Which LD50 does the source give for C=CC(=O)OCCOCCOCCOC(=O)C=C here?
The LD50 was 500 mg/kg.

For COc1cc(C(O)C(C)NC(C)COc2ccccc2)ccc1O (stereo not given), which LD50 is on record?
Its LD50 is 1280 mg/kg.

With FC(F)(F)c1nc2c(Cl)c(Cl)c(Cl)c(Cl)c2[nH]1 as the compound, how does the LD50 read?
The LD50 was 0.245 mg/kg.

For COc1ccc(-c2oc3ccc(C(=O)O)cc3c(=O)c2OC(C)C)cc1, which LD50 is on record?
Its LD50 is 1480 mg/kg.

With C=C1C(C)(C)C2(Cl)C(Cl)(Cl)C(Cl)(Cl)C1(Cl)C2(Cl)Cl (stereo not given) as the compound, how does the LD50 read?
The LD50 was 40 mg/kg.

Which LD50 does the source give for CS(=O)(=O)N(Cc1cccnc1)c1ccc(F)cc1F here?
Its LD50 is 1060 mg/kg.

Which LD50 does the source give for O=P(O)(O)CN(CP(=O)(O)O)CP(=O)(O)O here?
Its LD50 is 17800 mg/kg.

Which LD50 does the source give for O=c1ccc(O)n[nH]1 here?
Its LD50 is 3900 mg/kg.

For CCCCCCCCCCCOC(=O)Cc1ccc(N(CCCl)CCCl)cc1, which LD50 is on record?
The LD50 was 50 mg/kg.

With Nc1ccc(O)c(Cc2cc(N)ccc2O)c1 as the compound, how does the LD50 read?
Its LD50 is 25 mg/kg.

Which LD50 does the source give for CCOC(=S)C=Cc1ccc([N+](=O)[O-])cc1 here?
Its LD50 is 970 mg/kg.

With C=C(Cl)CSC(=S)N(CC)CC as the compound, how does the LD50 read?
Its LD50 is 850 mg/kg.

Which LD50 does the source give for Nc1cc(S(=O)(=O)O)cc2c1C(=O)C(=NNc1ccc(NN=C3C(=O)c4c(O)cc(S(=O)(=O)O)cc4C=C3S(=O)(=O)O)cc1)C(S(=O)(=O)O)=C2 here?
The LD50 was 12000 mg/kg.

With Cc1cc(S(=O)(=O)O)c2c(C)ccc(C(C)C)cc1-2 as the compound, how does the LD50 read?
Its LD50 is 6380 mg/kg.

Which LD50 does the source give for C=C1/C(=C\C=C2/CCC[C@]3(C)[C@@H]([C@H](C)/C=C/[C@H](C)C(C)C)CC[C@@H]23)C[C@@H](O)C[C@@H]1O here?
Its LD50 is 3.5 mg/kg.

With OCC(O)CN1CCN(c2ccccc2)CC1 (stereo not given) as the compound, how does the LD50 read?
The LD50 was 750 mg/kg.

Which LD50 does the source give for CCCCC(CC)CNC1CCCCC1 (stereo not given) here?
Its LD50 is 710 mg/kg.

For O=C(Cl)C(Br)CBr (stereo not given), which LD50 is on record?
The LD50 was 1200 mg/kg.

Which LD50 does the source give for O=C1c2ccccc2C(=O)C1C(=O)C(c1ccccc1)c1ccccc1 here?
Its LD50 is 1.5 mg/kg.

Which LD50 does the source give for COC(=O)c1cccc(CCN(C)Cc2ccccc2)c1 here?
Its LD50 is 700 mg/kg.

For CCc1ccc(CCO)nc1, which LD50 is on record?
Its LD50 is 4290 mg/kg.

With CC(C(=O)O)c1ccc(-c2ccccc2)c(F)c1 (stereo not given) as the compound, how does the LD50 read?
Its LD50 is 117 mg/kg.

For CCBr, which LD50 is on record?
The LD50 was 1350 mg/kg.

With CCOC(=O)[C@H](CCc1ccccc1)N[C@@H](C)C(=O)N1CCC[C@H]1C(=O)O as the compound, how does the LD50 read?
The LD50 was 2970 mg/kg.

Which LD50 does the source give for CC(=O)OCc1ccc2c(c1)OCO2 here?
Its LD50 is 2100 mg/kg.

Which LD50 does the source give for Cc1ccc(O)c(-n2nc3ccccc3n2)c1 here?
Its LD50 is 10000 mg/kg.

Which LD50 does the source give for COc1ccccc1N1CCN(CC=Cc2ccc3c(c2)CCC(=O)N3)CC1 here?
The LD50 was 500 mg/kg.

Which LD50 does the source give for CN1CCC(C=C2c3ccccc3CCc3ccccc32)C1 (stereo not given) here?
Its LD50 is 303 mg/kg.

Which LD50 does the source give for CCOc1ccc(C(=O)COC(=O)CCC(=O)O)c2ccccc12 here?
Its LD50 is 3500 mg/kg.
